Experimental data reported in US20160346289A1, “Fixed-Dose Combinations of Antiviral Compounds” (MERCK SHARP & DOHME CORP., priority 2014, published 2016).

Experiments:
[1] = Human pharmacokinetics of Formulation 3 with and without 20 mg famotidine; type: in vivo; conditions: conventional formulation of Compound II
Experimental: The oral absorption obtained from Formulation 3 with and without pH-modifying medications (20 mg famotidine) was evaluated as part of human clinical study. For the treatment with famotidine, single oral doses of 20 mg famotidine (1×20 mg tablet) were administered on the previous evening and 2 hours prior to a single oral dose of Formulation 3.

[2] = Human pharmacokinetics of Formulation 4 with and without famotidine, co-dosed with Formulation 1; type: in vivo; conditions: Compound II from Formulation 4 co-dosed with Formulation 1; healthy subjects
Experimental: For the treatment with famotidine, single oral doses of 20 mg famotidine (1×20 mg tablet) was administered 10 hours and 2 hours prior to an oral dose of Formulation 1 and Formulation 4.

[3] = Aqueous / pH-dependent solubility; type: physicochemical; conditions: between pH 1-3

## COC(=O)N[C@H](C(=O)N1CCC[C@H]1c1nc(-c2ccc3c(c2)O[C@@H](c2ccccc2)n2c-3cc3cc(-c4c[nH]c([C@@H]5CCCN5C(=O)[C@@H](NC(=O)OC)C(C)C)n4)ccc32)c[nH]1)C(C)C [Compound II, dimethyl N,N′-([(6S)-6-phenylindolo[1,2-c][1,3]benzoxazine-3,10-diyl]bis{1H-imidazole-5,2-diyl-(2S)-pyrrolidine-2,1-diyl[(2S)-3-methyl-1-oxobutane-1,2-diyl]})dicarbamate]
[1]
  absorption upon co-administration with a pH-raising medication: poor absorption
[2]
  exposure following famotidine versus without famotidine: comparable
[3]
  pH-dependent solubility profile: sharp pH-dependent solubility profile
